Source: ChEMBL document CHEMBL1123320, “Studies in potential filaricides. 18. Synthesis of 2,2'-disubstituted 5,5'-dibenzimidazolyl ketones and related compounds as potential anthelmintics” (1986)

Experiments:
[1] = tested on: Cricetinae gen. sp.; assay: Anthelmintic activity against Ancylostoma ceylanicum in hamsters at a dose of 12.5x1 mg/kg administered perorally; type: functional, Cricetulus griseus
[2] = tested on: Cricetinae gen. sp.; assay: Anthelmintic activity against Ancylostoma ceylanicum in hamsters at a dose of 25x1 mg/kg administered perorally; type: functional, Cricetulus griseus
[3] = tested on: Cricetinae gen. sp.; assay: Anthelmintic activity against Ancylostoma ceylanicum in hamsters at a dose of 50x1 mg/kg administered perorally; type: functional, Cricetulus griseus
[4] = tested on: Cricetinae gen. sp.; assay: Anthelmintic activity against Ancylostoma ceylanicum in hamsters at a dose of 6.25 x1 mg/kg administered perorally; type: functional, Cricetulus griseus
[5] = tested on: Cricetinae gen. sp.; assay: Anthelmintic activity against Ancylostoma ceylanicum (hook worm) in hamsters at a dose of 50x1 mg/kg administered perorally; type: functional, Cricetulus griseus
[6] = tested on: Mastomys natalensis; assay: Filaricidal activity against Brugia malayi in Mastomys at a dosage of 200 mg/kg x 5 administered orally; type: functional; conditions: route oral
[7] = tested on: Mastomys natalensis; assay: Filaricidal activity against Brugia malayi in Mastomys at a dosage of 50 mg/kg x 5 administered intraperitoneally; type: functional; conditions: route intraperitoneal
[8] = tested on: Mastomys natalensis; assay: Filaricidal activity against Dipetalonema viteae in Mastomys at a dosage of 150 mg/kg x 5 administered orally; type: functional; conditions: route oral
[9] = tested on: Mastomys natalensis; assay: Filaricidal activity against Dipetalonema viteae in Mastomys at a dosage of 25 mg/kg x 5 administered subcutaneous; type: functional
[10] = tested on: Mastomys natalensis; assay: Filaricidal activity against Brugia malayi in Mastomys at a dosage of 200 mg/kg x 5 administered orally at a day of 63; type: functional; conditions: route oral
[11] = tested on: Mastomys natalensis; assay: Filaricidal activity against Brugia malayi in Mastomys at a dosage of 200 mg/kg x 5 administered orally at a day of 8; type: functional; conditions: route oral
[12] = tested on: Mastomys natalensis; assay: Filaricidal activity against Brugia malayi in Mastomys at a dosage of 200 mg/kg x 5 administered orally at a day of 91; type: functional; conditions: route oral
[13] = tested on: Mastomys natalensis; assay: Filaricidal activity against Brugia malayi in Mastomys at a dosage of 50 mg/kg x 5 administered intraperitoneally at a day of 21; type: functional; conditions: route intraperitoneal
[14] = tested on: Mastomys natalensis; assay: Filaricidal activity against Brugia malayi in Mastomys at a dosage of 50 mg/kg x 5 administered intraperitoneally at a day of 42; type: functional; conditions: route intraperitoneal
[15] = tested on: Mastomys natalensis; assay: Filaricidal activity against Brugia malayi in Mastomys at a dosage of 50 mg/kg x 5 administered intraperitoneally at a day of 63; type: functional; conditions: route intraperitoneal
[16] = tested on: Mastomys natalensis; assay: Filaricidal activity against Brugia malayi in Mastomys at a dosage of 50 mg/kg x 5 administered intraperitoneally at a day of 8; type: functional; conditions: route intraperitoneal
[17] = tested on: Mastomys natalensis; assay: Filaricidal activity against Brugia malayi in Mastomys at a dosage of 50 mg/kg x 5 administered intraperitoneally at a day of 91; type: functional; conditions: route intraperitoneal
[18] = tested on: Mastomys natalensis; assay: Filaricidal activity against Dipetalonema viteae in Mastomys at a dosage of 150 mg/kg x 5 administered orally at a day of 21; type: functional; conditions: route oral
[19] = tested on: Mastomys natalensis; assay: Filaricidal activity against Dipetalonema viteae in Mastomys at a dosage of 150 mg/kg x 5 administered orally at a day of 42; type: functional; conditions: route oral
[20] = tested on: Mastomys natalensis; assay: Filaricidal activity against Dipetalonema viteae in Mastomys at a dosage of 150 mg/kg x 5 administered orally at a day of 8; type: functional; conditions: route oral
[21] = tested on: Mastomys natalensis; assay: Filaricidal activity against Dipetalonema viteae in Mastomys at a dosage of 25 mg/kg x 5 administered subcutaneous at a day of 21; type: functional
[22] = tested on: Mastomys natalensis; assay: Filaricidal activity against Dipetalonema viteae in Mastomys at a dosage of 25 mg/kg x 5 administered subcutaneous at a day of 42; type: functional
[23] = tested on: Mastomys natalensis; assay: Filaricidal activity against Dipetalonema viteae in Mastomys at a dosage of 25 mg/kg x 5 administered subcutaneous at a day of 8; type: functional
[24] = tested on: Mus musculus; assay: Anthelmintic activity against Syphacia obvelata in mice at a dose of 100x1 mg/kg administered perorally; type: functional
[25] = tested on: Mus musculus; assay: Anthelmintic activity against Syphacia obvelata in mice at a dose of 25x1 mg/kg administered perorally; type: functional
[26] = tested on: Mus musculus; assay: Anthelmintic activity against Syphacia obvelata in mice at a dose of 50x1 mg/kg administered perorally; type: functional
[27] = tested on: Rattus norvegicus; assay: Anthelmintic activity against Hymenolepis nana in rats at a dose of 100x1 mg/kg administered perorally; type: functional
[28] = tested on: Rattus norvegicus; assay: Anthelmintic activity against Hymenolepis nana in rats at a dose of 250x1 mg/kg administered perorally; type: functional
[29] = tested on: Rattus norvegicus; assay: Anthelmintic activity against Hymenolepis nana in rats at a dose of 50x1 mg/kg administered perorally; type: functional
[30] = tested on: Rattus norvegicus; assay: Filaricidal activity against Litomosoides carinii in cotton rats at a dosage of 100 mg/kg x 5 administered orally; type: functional; conditions: route oral
[31] = tested on: Rattus norvegicus; assay: Filaricidal activity against Litomosoides carinii in cotton rats at a dosage of 10 mg/kg x 5 administered intraperitoneally at a day of 42; type: functional; conditions: route intraperitoneal
[32] = tested on: Mastomys natalensis; assay: Filaricidal activity against Brugia malayi in Mastomys at a dosage of 200 mg/kg x 5 administered orally at a day of 21; type: functional; conditions: route oral
[33] = tested on: Mastomys natalensis; assay: Filaricidal activity against Brugia malayi in Mastomys at a dosage of 200 mg/kg x 5 administered orally at a day of 42; conditions: route oral
[34] = tested on: Sigmodon hispidus; assay: Filaricidal activity against Litomosoides carinii in cotton rats at a dosage of 100 mg/kg x 5 administered orally at a day of 8; conditions: route oral
[35] = tested on: Sigmodon hispidus; assay: Filaricidal activity against Litomosoides carinii in cotton rats at a dosage of 100 mg/kg x 5 administered orally at a day of 21; conditions: route oral
[36] = tested on: Sigmodon hispidus; assay: Filaricidal activity against Litomosoides carinii in cotton rats at a dosage of 100 mg/kg x 5 administered orally at a day of 42; conditions: route oral
[37] = tested on: Sigmodon hispidus; assay: Filaricidal activity against Litomosoides carinii in cotton rats at a dosage of 10 mg/kg x 5 administered intraperitoneally at a day of 8; conditions: route intraperitoneal
[38] = tested on: Sigmodon hispidus; assay: Filaricidal activity against Litomosoides carinii in cotton rats at a dosage of 10 mg/kg x 5 administered intraperitoneally at a day of 21; conditions: route intraperitoneal
[39] = tested on: Sigmodon hispidus; assay: Filaricidal activity against Litomosoides carinii in cotton rats at a dosage of 10 mg/kg x 5 administered intraperitoneally at a day of 42; conditions: route intraperitoneal
[40] = tested on: Cricetinae gen. sp.; assay: Anthelmintic activity against Ancylostoma ceylanicum (hook worm) in hamsters at a dose of 1x 1 mg/kg administered perorally; type: functional, Cricetulus griseus; conditions: route oral
[41] = tested on: Cricetinae gen. sp.; assay: Anthelmintic activity against Ancylostoma ceylanicum in hamsters at a dose 1x 1 mg/kg administered perorally; type: functional, Cricetulus griseus; conditions: route oral
[42] = tested on: Cricetinae gen. sp.; assay: Anthelmintic activity against Ancylostoma ceylanicum in hamsters at a dose of 0.5x1 mg/kg administered perorally; type: functional, Cricetulus griseus
[43] = tested on: Mastomys natalensis; assay: Filaricidal activity against Dipetalonema viteae in Mastomys at a dosage of 300 mg/kg x 5 administered orally; type: functional; conditions: route oral
[44] = tested on: Mastomys natalensis; assay: Filaricidal activity against Dipetalonema viteae in Mastomys at a dosage of 6.25 mg/kg x 5 administered subcutaneous; type: functional
[45] = tested on: Mastomys natalensis; assay: Filaricidal activity against Brugia malayi in Mastomys at a dosage of 200 mg/kg x 5 administered orally at a day of 42; type: functional; conditions: route oral
[46] = tested on: Mastomys natalensis; assay: Filaricidal activity against Dipetalonema viteae in Mastomys at a dosage of 6.25 mg/kg x 5 administered subcutaneous at a day of 42; type: functional
[47] = tested on: Mastomys natalensis; assay: Filaricidal activity against Dipetalonema viteae in Mastomys at a dosage of 300 mg/kg x 5 administered orally at a day of 21; type: functional; conditions: route oral
[48] = tested on: Mastomys natalensis; assay: Filaricidal activity against Dipetalonema viteae in Mastomys at a dosage of 300 mg/kg x 5 administered orally at a day of 42; type: functional; conditions: route oral
[49] = tested on: Mastomys natalensis; assay: Filaricidal activity against Dipetalonema viteae in Mastomys at a dosage of 6.25 mg/kg x 5 administered subcutaneous at a day of 21; type: functional
[50] = tested on: Mastomys natalensis; assay: Filaricidal activity against Dipetalonema viteae in Mastomys at a dosage of 6.25 mg/kg x 5 administered subcutaneous at a day of 8; type: functional
[51] = tested on: Rattus norvegicus; assay: Anthelmintic activity against Hymenolepis nana in rats at a dose of 400x3 mg/kg administered perorally; type: functional
[52] = tested on: Rattus norvegicus; assay: Filaricidal activity against Litomosoides carinii in cotton rats at a dosage of 300 mg/kg x 5 administered orally at a day of 8; type: functional; conditions: route oral
[53] = tested on: Rattus norvegicus; assay: Filaricidal activity against Litomosoides carinii in cotton rats at a dosage of 300 mg/kg x 5 administered orally at a day of 21; type: functional; conditions: route oral
[54] = tested on: Rattus norvegicus; assay: Filaricidal activity against Litomosoides carinii in cotton rats at a dosage of 300 mg/kg x 5 administered orally at a day of 42; type: functional; conditions: route oral
[55] = tested on: Mastomys natalensis; assay: Filaricidal activity against Dipetalonema viteae in Mastomys at a dosage of 300 mg/kg x 5 administered orally at a day of 8; type: functional; conditions: route oral
[56] = tested on: Litomosoides carinii; assay: Filaricidal activity against Litomosoides carinii in cotton rats at a dosage of 300 mg/kg x 5 administered orally; conditions: route oral

COC(=O)Nc1nc2cc(C(=O)c3ccc4[nH]c(NC(=O)OC)nc4c3)ccc2[nH]1 gave an Animals cured [1] of 0%, a Worm reduction [1] of 40.4% and an Animals cured [2] of 50%. It also gave a Worm reduction [2] of 60%, an Animals cured [3] of 100% and an Animals cured [4] of 0%. The Worm reduction [4] was 0%, the Worm reduction [5] was 100% and the Death [6] was 97%. For the same compound, the Death [7] was 99%, the Death [8] was 100% and the Death [9] was 100%. It also gave a Removal of microfilariae [10] of 63.9%, a Removal of microfilariae [11] of 0% and a Removal of microfilariae [12] of 94%. It also gave a Removal of microfilariae [13] of 60.1%, a Removal of microfilariae [14] of 89% and a Removal of microfilariae [15] of 89.4%. It also gave a Removal of microfilariae [16] of 0%, a Removal of microfilariae [17] of 93% and a Removal of microfilariae [18] of 0%. For the same compound, the Removal of microfilariae [19] was 100%, the Removal of microfilariae [20] was 0% and the Removal of microfilariae [21] was 58.8%. It also gave a Removal of microfilariae [22] of 100%, a Removal of microfilariae [23] of 0% and an Animals cured [24] of 100%. The Animals cured [25] was 0%, the Animals cured [26] was 66.6% and the Animals cured [27] was 50%. It also gave an Animals cured [28] of 100%, an Animals cured [29] of 16.6% and a Death [30] of 100%. The Death [31] was 100%, the Removal of microfilariae [32] was 0% and the Removal of microfilariae [33] was 30%. It also gave a Removal of microfilariae [34] of 72%, a Removal of microfilariae [35] of 80.9% and a Removal of microfilariae [36] of 100%. For the same compound, the Removal of microfilariae [37] was 65.6%, the Removal of microfilariae [38] was 100% and the Removal of microfilariae [39] was 100%.

Compound COC(=O)Nc1nc2cc(C(=O)c3ccccc3)ccc2[nH]1 [MEBENDAZOLE] has a Worm reduction [40] of 100%, an Animals cured [41] of 100% and an Animals cured [42] of 37.5%. It also gave a Worm reduction [42] of 72%, a Death [6] of 0% and a Death [7] of 100%. The Death [43] was 85.4%, the Death [44] was 100% and the Removal of microfilariae [45] was 0%. For the same compound, the Removal of microfilariae [10] was 0%, the Removal of microfilariae [11] was 0% and the Removal of microfilariae [12] was 0%. The Removal of microfilariae [13] was 65.3%, the Removal of microfilariae [14] was 100% and the Removal of microfilariae [15] was 100%. It also gave a Removal of microfilariae [16] of 0%, a Removal of microfilariae [17] of 100% and a Removal of microfilariae [46] of 100%. The Removal of microfilariae [47] was 85.5%, the Removal of microfilariae [48] was 100% and the Removal of microfilariae [49] was 100%. It also gave a Removal of microfilariae [50] of 53.1%, an Animals cured [24] of 66.6% and an Animals cured [26] of 0%. The Animals cured [51] was 0%, the Death [31] was 100% and the Removal of microfilariae [52] was 48.8%. It also gave a Removal of microfilariae [53] of 57.7%, a Removal of microfilariae [54] of 74.3% and a Removal of microfilariae [32] of 0%. It also gave a Removal of microfilariae [55] of 0%, a Death [56] of 33.8% and a Removal of microfilariae [37] of 58.6%. The Removal of microfilariae [38] was 96.3% and the Removal of microfilariae [39] was 100%.
